A short description of data set [1]: in vitro. Particulars: human.
Data set [2] is described as follows: Cell viability in primary rat dorsal root ganglia (DRG). The data set is classed as cell-based.
Data set [3] can be described thus: in vitro. Particulars: human. The source holds these as a separate data set.
Data set [4] can be described thus: Metabolic stability in liver microsomes: Mouse BL6. The following applies: 1 μM compound, 0.3 mg/mL protein, NADPH, 37° C., read-out: Mouse BL6 Liver Microsome Stability Half-life. The data set is classed as in vitro ADME.
Data set [5] can be described thus: Plasma stability assay: mouse. The data set is classed as in vitro ADME. Particulars: 10 μM, 37° C.
The next data set addresses T1, Full length Human HDAC8 (Homo sapiens, UniProt Q9BY41).
T1 sequence (Q9BY41 1-377): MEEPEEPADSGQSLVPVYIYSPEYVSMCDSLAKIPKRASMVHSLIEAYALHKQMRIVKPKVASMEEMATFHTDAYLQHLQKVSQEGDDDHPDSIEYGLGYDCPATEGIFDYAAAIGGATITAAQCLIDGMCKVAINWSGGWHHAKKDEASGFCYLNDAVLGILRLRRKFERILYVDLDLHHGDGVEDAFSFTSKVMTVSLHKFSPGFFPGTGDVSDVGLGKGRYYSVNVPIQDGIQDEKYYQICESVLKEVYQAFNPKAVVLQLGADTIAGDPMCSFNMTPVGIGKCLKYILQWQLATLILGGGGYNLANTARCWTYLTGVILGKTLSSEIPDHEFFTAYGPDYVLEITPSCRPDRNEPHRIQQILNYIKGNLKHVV

Data set [6] in a line: Plasma protein binding assay (Rapid Equilibrium Dialysis): mouse. The arrangement: dose or concentration left out as unconfirmed. Particulars: pH 7.4, RED, 5 hours at 37° C. The data set is classed as in vitro ADME.
Data set [7] has as its system histone H3 acetylation (acH3K9) in undifferentiated SH-SY5Y cells. As to the kind of experiment: Histone H3 acetylation in cells (Western immunoblot). Particulars: Homo sapiens, 4 hours, acetyl histone H3K9/histone H3 ratio. The data set is classed as cell-based. As for the experimental part: (§1) Compound EC50 Determination for Tubulin- and Histone H3 Acetylation in Cells
(§2) Estimation of the EC50 for exemplary compounds to alter target protein acetylation in undifferentiated SH-SY5Y cells was performed using standard Western immunoblotting methods. […] SH-SY5Y cells were grown to 90% confluency on sterile cell growth plates. 10 mM compound stocks prepared in DMSO and two-fold serial dilutions were prepared from the stock and applied to cells to achieve a 12-point concentration range in cell media from an upper limit of 10 μM to a lower limit of DMSO [zero compound].
(§3) Cells were incubated under normal growth conditions (37° C., 5% CO2) in the presence of compound for 4 hours, then media was aspirated and cells were rinsed two times with 1×DPBS with calcium and magnesium warmed to 37° C. Cells were frozen directly on the plates on a bed of dry ice for 5 min, then stored at −80° C. until protein extraction.
(§4) Protein extraction was performed in RIPA buffer (50 mM Tris-HCL pH 8.0, 150 mM NaCl, 0.5% sodium deoxycholate, 0.1% sodium dodecyl sulfate, 1% NP-40) supplemented with Pierce protease inhibitor mini tables (Thermofisher cat #A32953) exactly as described by the manufacturer. After thawing the plate on a bed of wet ice for 10 minutes, lysis buffer was added to each well (e.g. 100 μL per well of a 24-well plate) and cells scraped from the bottom of each well. Lysates were then sonicated over ice (40% power, 30 pulses of 1 second on, 2 seconds off), centrifuged at 16,000 g for 10 min at 4° C., and the clarified supernatant saved. Protein concentration was determined by BCA assay and at least 3 μg prepared per lane by combining lysate supernatant aliquot with 1/3 total volume of 3× gel loading buffer containing DTT (NEB Cat. #B7703S), heating for 5 minutes at 95° C., briefly centrifuging and then loading on an SDS-PAGE gel.
(§5) Proteins were resolved on a 4-20% Tris-Glycine gel and transferred to PVDF membrane using an iBlot2 dry transfer system. The membrane was then blocked for at least 30 minutes at room temperature in TBST containing 5% milk or 5% bovine serum albumin, then incubated overnight at 4° C. with a single primary antibody from the following table:
(§6) Following primary antibody incubation, membranes were washed, incubated in secondary antibody, washed and incubated in ECL prime western blotting detection reagent (Amersham #RPN223) with membrane exposure and ECL signal capture in a LI-COR Odyssey Imaging system. […] Subsequent densitometry of immunoreactive bands was performed using the ImageStudio software and Microsoft Excel resulting in the following ratios: acetylTubulin/Tubulin and acetyl histone H3K9/histone H3. Raw ratios were uploaded to GraphPad Prism v7.0 with EC50 values modeled using the variable slope equation for log-transformed data [log(agonist) vs response in Prism].
Background: A western blot detects proteins with antibodies after separation by electrophoresis.

Data set [8] deals with tubulin acetylation (acTubK40) in undifferentiated SH-SY5Y cells. Nature of the data set: Tubulin acetylation in cells (Western immunoblot). The data set is classed as cell-based. The following applies: Homo sapiens, 4 hours, acetylTubulin/Tubulin ratio. As for the experimental part:
as §1, §2, §3, §4, §5, §6

A further data set addresses T2, Full length Human HDAC6 (Homo sapiens, UniProt Q9UBN7).
T2 sequence (Q9UBN7 1-1215): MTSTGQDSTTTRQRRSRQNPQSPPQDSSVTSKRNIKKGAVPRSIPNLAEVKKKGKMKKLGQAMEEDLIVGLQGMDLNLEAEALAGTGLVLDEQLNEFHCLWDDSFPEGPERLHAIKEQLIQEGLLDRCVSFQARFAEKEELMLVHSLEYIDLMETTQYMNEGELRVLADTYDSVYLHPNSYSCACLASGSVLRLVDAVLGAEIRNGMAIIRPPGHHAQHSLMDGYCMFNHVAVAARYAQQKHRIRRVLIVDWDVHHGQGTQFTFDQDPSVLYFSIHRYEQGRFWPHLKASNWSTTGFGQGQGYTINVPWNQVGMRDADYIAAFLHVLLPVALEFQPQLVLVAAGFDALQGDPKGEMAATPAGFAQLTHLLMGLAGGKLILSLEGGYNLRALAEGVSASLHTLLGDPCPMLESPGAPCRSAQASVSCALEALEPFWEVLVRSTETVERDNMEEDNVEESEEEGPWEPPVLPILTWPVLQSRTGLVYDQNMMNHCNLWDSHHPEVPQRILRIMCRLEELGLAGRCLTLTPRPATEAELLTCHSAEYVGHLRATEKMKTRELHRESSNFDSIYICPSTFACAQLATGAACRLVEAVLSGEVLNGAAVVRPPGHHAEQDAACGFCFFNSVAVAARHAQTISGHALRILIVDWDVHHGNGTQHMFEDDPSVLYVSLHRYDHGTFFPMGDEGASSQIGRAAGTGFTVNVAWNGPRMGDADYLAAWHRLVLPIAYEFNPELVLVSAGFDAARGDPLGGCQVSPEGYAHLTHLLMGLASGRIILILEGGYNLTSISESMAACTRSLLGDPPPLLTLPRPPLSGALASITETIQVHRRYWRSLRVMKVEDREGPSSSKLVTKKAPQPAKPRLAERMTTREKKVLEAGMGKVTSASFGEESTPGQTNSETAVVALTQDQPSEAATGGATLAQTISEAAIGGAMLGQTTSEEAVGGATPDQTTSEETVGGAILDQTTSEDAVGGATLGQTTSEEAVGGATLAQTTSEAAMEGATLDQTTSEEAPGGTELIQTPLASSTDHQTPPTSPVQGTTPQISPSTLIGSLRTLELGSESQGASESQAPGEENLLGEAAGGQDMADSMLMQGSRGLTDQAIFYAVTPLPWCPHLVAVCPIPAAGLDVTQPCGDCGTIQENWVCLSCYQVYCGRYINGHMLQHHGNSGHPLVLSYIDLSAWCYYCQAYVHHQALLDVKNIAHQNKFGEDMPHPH
The following applies: for Selectivity (6 v 8) (fold): ratio of HDAC8 IC50/HDAC6 IC50.

Data set [9] in a line: In vivo assessment of brain penetration in mice (IV 1 mg/kg, plasma and brain levels). Particulars: mouse, BL/6 mice.
Another data set deals with T3, Full length Human HDAC10 (Homo sapiens, UniProt Q969S8).
T3 sequence (Q969S8 1-669): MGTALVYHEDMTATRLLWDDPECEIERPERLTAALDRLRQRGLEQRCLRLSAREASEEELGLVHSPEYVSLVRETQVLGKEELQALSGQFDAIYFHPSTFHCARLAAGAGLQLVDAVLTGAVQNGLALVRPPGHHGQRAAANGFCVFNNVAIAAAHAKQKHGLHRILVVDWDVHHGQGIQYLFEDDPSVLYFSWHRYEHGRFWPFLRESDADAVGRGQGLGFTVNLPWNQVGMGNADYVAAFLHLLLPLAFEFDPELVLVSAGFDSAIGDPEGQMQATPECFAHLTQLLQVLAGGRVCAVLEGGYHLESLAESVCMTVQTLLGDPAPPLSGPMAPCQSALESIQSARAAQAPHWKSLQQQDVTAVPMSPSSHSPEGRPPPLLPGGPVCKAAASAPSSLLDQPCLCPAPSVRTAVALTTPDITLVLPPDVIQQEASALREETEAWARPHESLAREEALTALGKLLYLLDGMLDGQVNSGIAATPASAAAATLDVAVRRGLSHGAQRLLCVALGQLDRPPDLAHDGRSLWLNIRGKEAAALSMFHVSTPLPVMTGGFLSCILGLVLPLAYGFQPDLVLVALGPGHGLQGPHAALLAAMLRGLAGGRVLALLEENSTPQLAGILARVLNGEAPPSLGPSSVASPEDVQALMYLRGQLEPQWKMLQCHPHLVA

For the next data set, the target named is T4, Human HDAC7 aa 518-end (Homo sapiens, UniProt Q8WUI4).
T4 sequence (Q8WUI4 518-952 limits assumed): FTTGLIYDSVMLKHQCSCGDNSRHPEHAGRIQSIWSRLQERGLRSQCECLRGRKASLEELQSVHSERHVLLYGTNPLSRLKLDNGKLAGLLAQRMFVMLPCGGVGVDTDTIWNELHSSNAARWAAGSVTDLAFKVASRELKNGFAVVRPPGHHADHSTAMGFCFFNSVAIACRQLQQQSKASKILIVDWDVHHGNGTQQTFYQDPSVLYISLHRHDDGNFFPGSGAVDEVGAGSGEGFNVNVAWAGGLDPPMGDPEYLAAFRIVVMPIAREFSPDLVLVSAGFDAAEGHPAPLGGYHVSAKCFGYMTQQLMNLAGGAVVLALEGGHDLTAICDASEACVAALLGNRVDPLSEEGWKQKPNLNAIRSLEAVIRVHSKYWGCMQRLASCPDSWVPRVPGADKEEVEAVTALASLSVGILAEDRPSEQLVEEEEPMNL

Data set [10] is described as follows: Metabolic stability in liver microsomes: Mouse CD1. The data set is classed as in vitro ADME. The following applies: 1 μM compound, 0.3 mg/mL protein, NADPH, 37° C., read-out: Mouse CD1 Liver Microsome Stability Half-life.

Where two headings read alike, the source gives them in different places. A value given as a limit tells only on which side of the number the result lay.

As usually defined, the viability is a read-out of living cells in per cent, often relative to untreated cells. Broadly, the CC50 is the concentration that lowers cell viability or growth by half. As a reminder, the half-life is the time needed for the level to fall by half in the phase considered. In general, IC50 refers to the concentration that inhibits the measured activity by half. Usually fraction unbound stands for the share of the substance not bound to proteins or other matrix. The term EC50 denotes the concentration giving half of the maximal effect.

Turning to `O=C(CCCCCCC(=O)Nc1ccccc1)NO` [Vorinostat], the viability at 48 h, 30 µM in “in vitro [1]” was found to be 40.3 ± 1.8%. The midpoint of cytotoxicity in [2], the CC50 at 72 h, lay at 390 nM. Moreover, in “in vitro [3]”, the viability at 4 h, 30 µM is 117 ± 7.5%.

Take `O=C(NO)c1ccc(CN2CCc3c([nH]c4ccccc34)C2)c(F)c1` [compound 46]: the half-life at 1 μM in [4] was 78.5 min. Further, the “Mouse Plasma Stability (% Remaining at 120 min)” value in data set [5] is on record as 43.8%. In addition, the IC50 is 100 to 1000 nM against Full length Human HDAC8 and 1 to 100 nM against Full length Human HDAC6. In addition, in [6], the fraction unbound at 5 h is 0.062. Also, the values for the EC50 in data set [7] and in data set [8] were above 10000 nM and 100 nM, respectively. Besides, the “Selectivity (6 v 8) (fold)” value at Full length Human HDAC6 (Table 1, number) is 51 fold; at Full length Human HDAC6 (Table 1, range class), “III (III: >10-100)”. Besides, the concentration at 15 min in [9] (brain, 15 min, read-out: Mouse Brain Conc (μM) at 15 min) was 0.15 µM; in data set [9] (plasma, 15 min, read-out: Mouse Plasma Conc (μM) at 15 min), 0.21 µM. Further, the concentration at 60 min is 0.03 µM in data set [9] (brain, 60 min, read-out: Mouse Brain Conc (μM) at 60 min) and 0.05 µM in data set [9] (plasma, 60 min, read-out: Mouse Plasma Conc (μM) at 60 min). Also, in data set [9] (brain and plasma, brain:plasma, 15 min, read-out: Mouse B:P at 15 min), the Kp at 15 min came to 0.72. In addition, the Kp at 60 min in [9] (brain and plasma, brain:plasma, 60 min, read-out: Mouse B:P at 60 min) was 0.6.

In the case of `O=C(NO)c1cc(F)c2c(c1)CN(CC13CC4CC(CC(C4)C1)C3)C2` [compound 33], the IC50 at Full length Human HDAC10 lay in the range of 10000 to 100000 nM; on Human HDAC7 aa 518-end it was 1000 to 10000 nM; on Full length Human HDAC8, 1000 to 10000 nM; on Full length Human HDAC8 (read-out: In vitro enzymatic IC50, HDAC Paralog 8, Table 2), 1000 to 10000 nM; against Full length Human HDAC6 it was 1 to 100 nM; at Full length Human HDAC6 (read-out: In vitro enzymatic IC50, HDAC Paralog 6, Table 2) it was 1 to 100 nM. Moreover, in data set [10], the half-life at 1 μM stood at 7.1 min. Moreover, the “Selectivity (6 v 8) (fold)” value is given as 291.4 fold at Full length Human HDAC6 (Table 1, number) and “IV (IV: >100-1000)” at Full length Human HDAC6 (Table 1, range class).
